How the values were obtained:
Assay in all cases: relative viability (nuclei count vs DMSO), 5 days (fraction); higher = more cells survive
Darinaparsin = compound: C[As](C)SC[C@H](NC(=O)CC[C@H](N)C(=O)O)C(=O)NCC(=O)O [Darinaparsin]
Outline: (§1)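 In 1536-well plates, lung cancer cell lines rested overnight at 37 °C before five library-drug doses (not always all listed), √10 apart, were pinned onto vehicle-anchored plates. Nuclei were counted with MetaXpress from 4× Hoechst images taken after 5 days without medium change. Viability compares treated-well with vehicle-well nuclei as a median over plates, and plates needed control CV below 25% plus at least one doubling to pass.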

QS11 = compound: C1CC2=C(C1)C=C(C=C2)OC3=NC(=C4C(=N3)N(C=N4)CC5=CC=C(C=C5)C6=CC=CC=C6)N[C@@H](CC7=CC=CC=C7)CO [QS11]
Outline: as §1

AZ628 = compound: CC1=C(C=C(C=C1)NC(=O)C2=CC(=CC=C2)C(C)(C)C#N)NC3=CC4=C(C=C3)N=CN(C4=O)C [AZ628]
Outline: as §1

Darinaparsin + Foretinib = compound: C[As](C)SC[C@H](NC(=O)CC[C@H](N)C(=O)O)C(=O)NCC(=O)O [Darinaparsin] + COc1cc2c(Oc3ccc(NC(=O)C4(C(=O)Nc5ccc(F)cc5)CC4)cc3F)ccnc2cc1OCCCN1CCOCC1 [Foretinib] (partner 0.25 µM)
Outline: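 Lung cancer cell lines in 1536-well plates got either a single drug or a fixed anchor-drug dose together with five library-drug doses (not always all listed) in √10 steps, by pin tool, on the day after seeding. Nuclei were counted after 5 days, and relative viability is the treated-to-vehicle ratio of nuclei counts. Values are medians of duplicate plates.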

| Cell Line | relative viability (Darinaparsin; 0.08 µM) | relative viability (Darinaparsin; 0.8 µM) | relative viability (Darinaparsin; 2.53 µM) | relative viability (Darinaparsin; 8 µM) | relative viability (QS11; 0.08 µM) | relative viability (QS11; 0.253 µM) | relative viability (QS11; 0.8 µM) | relative viability (QS11; 2.53 µM) | relative viability (QS11; 8 µM) | relative viability (AZ628; 0.08 µM) | relative viability (AZ628; 0.253 µM) | relative viability (AZ628; 0.8 µM) | relative viability (AZ628; 2.53 µM) | relative viability (AZ628; 8 µM) | relative viability (Darinaparsin + Foretinib; first compound 0.08 µM) | relative viability (Darinaparsin + Foretinib; first compound 0.8 µM) | relative viability (Darinaparsin + Foretinib; first compound 2.53 µM) | relative viability (Darinaparsin + Foretinib; first compound 8 µM) |
| --- | --- | --- | --- | --- | --- | --- | --- | --- | --- | --- | --- | --- | --- | --- | --- | --- | --- | --- |
| NCI-H520 | 1.12 | 0.947 | 0.833 | 1.09 | 0.864 | 1.04 | 1.12 | 1.11 | 1.14 | 1.06 | 0.994 | 0.937 | 0.937 | 0.878 | 1.12 | 0.662 | 0.845 | 0.871 |
| NCI-H596 | 0.937 | 1.05 | 0.938 | 1.05 | 0.931 | 0.833 | 1.15 | 0.969 | 1.09 | 1.05 | 1.03 | 1.1 | 1.06 | 1.01 | 0.906 | 0.974 | 0.734 | 0.67 |
| NCI-H647 | 1.08 | 0.962 | 0.896 | 1.26 | 0.979 | 0.856 | 0.917 | 0.956 | 0.769 | 1.01 | 0.962 | 0.798 | 0.936 | 0.732 | 1.53 | 1.31 | 1.01 | 1.45 |
| NCI-H650 | 0.988 | 1.01 | 0.967 | 0.947 | 0.841 | 0.908 | 1.01 | 0.932 | 0.89 | 1.13 | 1.05 | 1.3 | 1.1 | 1.26 | 1.09 | 1.05 | 1.13 | 1.03 |
| NCI-H661 | 0.999 | 1.01 | 1.03 | 1.12 | 0.992 | 0.977 | 0.853 | 1.01 | 1.03 | 1.08 | 1.05 | 0.861 | 0.938 | 0.842 | 1.01 | 0.995 | 1.08 | 1.26 |
| NCI-H727 | 0.895 | 0.884 | 0.986 | 1.04 | 0.989 | 0.975 | 0.867 | 0.935 | 0.752 | 0.777 | 0.531 | 0.389 | 0.543 | 0.294 | 0.917 | 0.863 | 1.11 | 1 |
| NCI-H838 | 0.997 | 0.931 | 0.991 | 1.14 | 0.99 | 0.915 | 0.784 | 0.908 | 0.872 | 1.02 | 0.992 | 0.951 | 0.932 | 0.868 | 1.19 | 1.03 | 0.856 | 1.23 |
| NCI-H1299 | 1.07 | 1.01 | 0.978 | 1.12 | 1.07 | 1.04 | 0.91 | 0.94 | 0.797 | 1.1 | 1.09 | 1.04 | 1.2 | 0.84 | 1.14 | 1.06 | 1.09 | 1.11 |
| NCI-H1355 | 1.06 | 0.939 | 0.865 | 1.1 | 0.933 | 0.918 | 0.769 | 0.981 | 0.986 | 1.02 | 0.975 | 0.956 | 0.938 | 0.781 | 1.09 | 0.91 | 0.854 | 0.768 |
| NCI-H1395 | 0.995 | 0.883 | 0.815 | 0.938 | 0.833 | 0.976 | 1 | 0.881 | 0.986 | 1.02 | 0.794 | 0.92 | 0.92 | 0.832 | 1.13 | 0.958 | 0.944 | 0.952 |
| NCI-H1437 | 1.08 | 1.02 | 0.973 | 1.21 | 0.965 | 1.02 | 0.752 | 0.901 | 0.929 | 0.988 | 0.938 | 0.858 | 1.01 | 1.01 | 1.35 | 1.3 | 1.24 | 1.32 |
| NCI-H1563 | 1.05 | 0.948 | 0.996 | 1.04 | 0.951 | 1.02 | 0.965 | 1.12 | 0.971 | 0.997 | 0.925 | 0.991 | 0.952 | 1.05 | 1.02 | 0.901 | 0.826 | 0.999 |
| NCI-H1623 | 0.925 | 1.06 | 0.975 | 1.02 | 0.912 | 1.03 | 0.862 | 0.871 | 1.04 | 0.992 | 0.979 | 0.604 | 0.858 | 0.615 | 0.902 | 0.832 | 0.871 | 0.868 |
| NCI-H1650 | 0.971 | 0.951 | 0.833 | 1.03 | 0.941 | 0.786 | 0.72 | 0.962 | 0.867 | 1.13 | 1.1 | 1.09 | 0.904 | 0.888 | 0.869 | 1.06 | 0.791 | 1.33 |
| NCI-H1651 | 1.15 | 1 | 0.942 | 1.18 | 0.906 | 1.01 | 0.857 | 0.988 | 0.899 | 0.986 | 1.01 | 0.986 | 1.08 | 1.12 | 0.951 | 0.885 | 0.851 | 0.777 |
| NCI-H1666 | 1.04 | 0.948 | 1.24 | 1.05 | 0.935 | 0.984 | 0.776 | 0.793 | 0.667 | 0.965 | 0.826 | 0.885 | 0.813 | 0.901 | 0.995 | 0.888 | 1.19 | 1.06 |
| NCI-H1703 | 1.43 | 1.09 | 0.889 | 1.07 | 0.94 | 0.908 | 0.901 | 1.04 | 0.923 | 0.597 | 0.395 | 0.32 | 0.303 | 0.245 | 0.377 | 0.328 | – | 0.307 |
